Assay results as given in US4990499A, “Anti-herpes simplex virus activity of 5-alkoxymethyl-2'-deoxycytidimes and their 5-monophosphates” (priority 1989, dated 1991).
Values after ≈ are worked out from the molar mass of the structure shown. Where two headings read alike, the source gives them in different places.

Key:
[1] = Inhibition of proliferation (MTC), H-9 cells; type: cell-based; conditions: human, highest concentration tested
Description: (§1) Inhibitory effects of MMdCyd on the proliferation of murine and human tumor cells was also investigated. MTC for MMdCyd was greater than 400 μg/ml (highest concentration tested) against Raji, MOLT/4F, MT4, CEM and H-9 (human) and L1210 (murine Leukemia) cells.

[2] = system: Herpes simplex virus type 2 (HSV-2); assay: Antiviral activity against HSV-2, viral plaque reduction (ED50); type: cell-based; conditions: 50 PFU
Description: (§2) Infected cells were treated with different concentrations of MMdCyd and the concentration required to reduce viral plaque formation by 50%, i.e. ED50, was determined.
(§3) ^a ED50 : Concentration required to reduce viral plaque formatio
(§4) The antiviral activity of MMdCyd in the presence of H4 dUrd was determined against several strains of HSV-1 and HSV-2.
^a Antiviral assays were carried out using Vero cells. Virus input 50
^b ED50 : Concentration required to reduce viral plaque formatio

[3] = system: Deoxynucleoside Triphosphate (dNTP) Pools in Vero Cells Infected with Herpes Simplex Virus Type 1; assay: Deoxynucleoside triphosphate (dNTP) pools in HSV-1 infected Vero cells; type: cell-based; conditions: Table 8, HSV-1 KOS infected Vero cells, 10 PFU/cell, treatment 7 hours, ± S.E.
Method in brief: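 Vero cells infected with HSV-1 KOS at 10 PFU/cell for one hour, then treated for seven hours with dGuo alone or dGuo plus H4 dUrd added right after adsorption. Intracellular dNTP pools then assayed, with untreated Vero cells as control.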

[4] = Cytotoxicity (MTC), HEP-2 cells; type: cell-based; conditions: human, read-out: minimum cytotoxic concentration (MTC)
Description: (§5) Minimum cytotoxic concentrations (MTC) for MMdCyd was greater than 1,000 μg/ml for RK-13, HEP-2 and Vero cells.
(§6) ^c MTC = Minimum toxic concentration concentration required to
(§7) produce definite evidence of microscopic toxicity on confluent monolayer

HSV-1, KOS [5] = assay: HSV-1 KOS infectivity in Vero cells prior to washing of drugs; type: cell-based, Herpes simplex virus type 1; conditions: for Virus Infectivity (% of virus control): combination with H4 dUrd 530 μM
Description: Vero cells were infected with HSV-1, KOS strain and then treated with MMdCyd in various quantities, and also with MMdCyd in various quantities together with a constant amount of H4 dUrd. The virus infectivity was observed and the results are given in Table 5 and are shown graphically in FIG. 3.
^a Virus infectivity was scored using following parameters: rounding
of cells, plaque formation and loss of monolayer structure.
^b Concentration of H4 dUrd used was 530 μM (125 μg/ml).

HSV-1, KOS [6] = assay: HSV-1 KOS infectivity (virus yield) in Vero cells after removal of drugs; type: cell-based, Herpes simplex virus type 1; conditions: for Virus Infectivity (% of virus control): after drug removal, combination with H4 dUrd 530 μM, 4320 min
Description: Vero cells were infected with HSV-1, KOS strain and then samples of the infected cells were treated with MMdCyd in various quantities and with MMdCyd in various quantities together with 530 μM of H4 dUrd. Cells were washed twice with 0.4 ml of MEM to remove residual drug, overlaid with growth medium and incubated for 72 h. The virus was harvested by two cycles of freezing and thawing. The culture fluid from each treatment was pooled and assayed for virus yield.
^b H4 dUrd 530 μM (125 μg/ml) was added along with MMdCyd.

[7] = Inhibition of proliferation (MTC), L1210 cells; type: cell-based, murine; conditions: mouse, highest concentration tested
Description: as §1

[8] = Inhibition of proliferation (MTC), MOLT/4F cells; type: cell-based; conditions: human, highest concentration tested
Description: as §1

[9] = system: Herpes simplex virus type 1 (HSV-1); assay: Antiviral activity against HSV-1, viral plaque reduction (ED50); type: cell-based
[10] = Inhibition of proliferation (MTC), Raji cells; type: cell-based; conditions: human, highest concentration tested
Description: as §1

[11] = system: Herpes simplex virus type 1 (HSV-1); assay: Antiviral activity against HSV-1, viral plaque reduction (ED50); type: cell-based; remark: listed apart in the source
Description: as §2, §3
Vero cells were infected with the KOS strain of HSV-1. The compound of compounds indicated in Table 2, below, and are shown graphically in FIGS. 1, (H4 dUrd) and 2 (H4 Urd).
^a Antiviral assays were carried out using Vero cells. All compounds
were added immediately after virus infection.
as §4
Vero cells were infected with HSV-1, strain 76 and treated with MMdCyd at different times post virus infection.
The antiviral activity, ^a cyctotoxicity* and antiviral indices of MMdCyd in the presence of H4 dUrd, dGuo and H4 dUrd+dGuo were determined.
^a Antiviral assays were carried out using Vero cells. Compounds were
added immediately after virus infection. Virus HSV1, strains KOS and 76;
KOS, virus input = 50 PFU

[12] = Cytotoxicity (MTC), RK-13 cells; type: cell-based; conditions: rabbit, read-out: minimum cytotoxic concentration (MTC)
Description: as §5, §6, §7

SMILES: COCc1cn([C@H]2C[C@H](O)[C@@H](CO)O2)c(=O)nc1N [MMdCyd, 5-methoxymethyl-2'-deoxycytidine]
- MCC [1]: > 400 µg/mL
- EC50 ([2]; HSV-2 333, Vero): 175 µM
- EC50 ([2]; HSV-2 MS, Vero): 228 µM
- EC50 ([2]; HSV-2 X-265, Vero): 130 µM
- dATP pool [3]: 25.2 ± 0.49 .rho.moles/10^6 cells
- dCTP pool [3]: 29.6 ± 1.85 .rho.moles/10^6 cells
- dGTP pool [3]: 72.6 ± 2.07 .rho.moles/10^6 cells
- dTTP pool [3]: 1072 ± 11.2 .rho.moles/10^6 cells
- MCC [4]: > 1000 µg/mL
- viral infectivity, conclusion (HSV-1, KOS [5]; Example 7): reduces viral infectivity
- Virus Infectivity (% of virus control) (HSV-1, KOS [5]; MMdCyd 1.6 μM): 90 % of virus control
- Virus Infectivity (% of virus control) (HSV-1, KOS [5]; MMdCyd 3.2 μM): 80 % of virus control
- Virus Infectivity (% of virus control) (HSV-1, KOS [5]; MMdCyd 6.4 μM): 66 % of virus control
- Virus Infectivity (% of virus control) (HSV-1, KOS [5]; MMdCyd 12.8 μM): 64 % of virus control
- Virus Infectivity (% of virus control) (HSV-1, KOS [5]; MMdCyd 25.6 μM): 45 % of virus control
- Virus Infectivity (% of virus control) (HSV-1, KOS [5]; MMdCyd 51.2 μM): 32 % of virus control
- Virus Infectivity (% of virus control) (HSV-1, KOS [5]; MMdCyd 104 μM): 20 % of virus control
- Virus Infectivity (% of virus control) (HSV-1, KOS [5]; MMdCyd 208 μM): 9 % of virus control
- Virus Infectivity (% of virus control) (HSV-1, KOS [5]; MMdCyd 416 μM): 0 % of virus control
- Virus Infectivity (% of virus control) (HSV-1, KOS [5]; MMdCyd 832 μM): 0 % of virus control
- production of infectious virus particles (HSV-1, KOS [5]; combination: MMdCyd >12 μM with H4 dUrd (printed 530 M)): significantly decreased
- effectiveness against the virus, conclusion (HSV-1, KOS [6]; Example 8): effective against the virus
- Virus Infectivity (% of virus control) (HSV-1, KOS [6]; MMdCyd 1.6 μM): 100 % of virus control
- Virus Infectivity (% of virus control) (HSV-1, KOS [6]; MMdCyd 3.2 μM): 99 % of virus control
- Virus Infectivity (% of virus control) (HSV-1, KOS [6]; MMdCyd 6.4 μM): 99 % of virus control
- Virus Infectivity (% of virus control) (HSV-1, KOS [6]; MMdCyd 12.8 μM): 99 % of virus control
- Virus Infectivity (% of virus control) (HSV-1, KOS [6]; MMdCyd 25.6 μM): 99 % of virus control
- Virus Infectivity (% of virus control) (HSV-1, KOS [6]; MMdCyd 51.2 μM): 70 % of virus control
- Virus Infectivity (% of virus control) (HSV-1, KOS [6]; MMdCyd 104 μM): 55 % of virus control
- Virus Infectivity (% of virus control) (HSV-1, KOS [6]; MMdCyd 208 μM): 40 % of virus control
- Virus Infectivity (% of virus control) (HSV-1, KOS [6]; MMdCyd 416 μM): 20 % of virus control
- Virus Infectivity (% of virus control) (HSV-1, KOS [6]; MMdCyd 832 μM): 10 % of virus control
- virus infectivity after washing of drugs (HSV-1, KOS [6]; less than 26 μM MMdCyd): no decrease in virus infectivity
- MCC [7]: > 400 µg/mL
- MCC [8]: > 400 µg/mL
- EC50 ([9]; HSV-1 76, HEP-2, 50 PFU): 22 µM
- EC50 ([9]; HSV-1 (strain cell empty, under NAH), RK-13, 50 PFU): 5 µM
- EC50 ([9]; HSV-1 KOS, Vero, 20 PFU, deaminase inhibitor 125 μg/ml, added immediately after infection): 12 to 17 µM
- MCC [10]: > 400 µg/mL
- ED50 [11]: 6 to 12 µg/mL
- ED50 ([11]; FIG. 6, after preincubating cells 3 hours with 25 μm dUrd, then washing): 21 µg/mL (≈ 77.4 µM)
- ED50 ([11]; FIG. 6, with 25 μM dUrd added simultaneously): 38 µg/mL (≈ 140 µM)
- EC50 ([11]; HSV-1 76, Vero, 50 PFU, added 4 hours post infection, read-out: ED50 (the source's name)): 28 µM
- EC50 ([11]; HSV-1 76, Vero, 50 PFU, added 6 hours post infection, read-out: ED50 (the source's name)): 32 µM
- EC50 ([11]; HSV-1 (strain cell empty, under NAH), RK-13, 10 PFU, read-out: ED50 (the source's name)): 3 µM
- EC50 ([11]; HSV-1, Vero and HEP-2 cells, read-out: ED50 (the source's name)): 14 to 26 µM
- EC50 ([11]; HSV-1 KOS, Vero, 20 PFU, read-out: ED50 (the source's name)): 14 µM
- EC50 ([11]; HSV-1 KOS, Vero, 50 PFU, read-out: ED50 (the source's name)): 26 µM
- EC50 ([11]; HSV-1 NAH, Vero, 50 PFU, read-out: ED50 (the source's name)): 66 µM
- activity against thymidine kinase negative strain ([11]; HSV--TK^-): lack of activity
- ED50, average value ([11]; Table 11, Vero, HSV-1 KOS and 76, 50-100 PFU, H4 dUrd 12 μg/ml, dGuo 25-30 μg/ml, average): 8 µg/mL (≈ 29.5 µM)
- A.I (antiviral index, MTC divided by ED50) ([11]; monkey, vero cells): > 125
- EC50 ([11]; read-out: ED50, HSV-1 TK, Vero, 10 PFU, highest concentration tested): > 833 µM
- EC50 ([11]; read-out: ED50, HSV-1 TK, Vero, 50 PFU, highest concentration tested): > 833 µM
- antiherpes activity ([11]; summary statement): potent and selective antiherpes agent
- ED50 on delayed treatment compared with one hour post virus infection ([11]; treatment delayed 4 to 6 hours post infection): essentially similar
- MCC [12]: > 1000 µg/mL
